Test [1] has as its system mice fed with high-fat diet. In words: Weight of mice fed with high-fat diet during drug administration. Particulars: tail vein injection daily, 12 weeks after drug administration onward, FIG. 5. The class given is in vivo. An excerpt:
Experimental animals: male mice at the age of 6 weeks and feed were provided by the Experimental Animal Center of Nanjing Medical University, license number: SCXK (Su) 2011-0003. The animals are fed in different cages randomly, and drink water freely.
Experimental drugs: normal diet control group (blank control group); and high-fat diet groups are divided into a normal saline group (model control group), a nano-bubble group, a nano-bubble-curcumin group, a polypeptide nano-bubble group (prepared by step 3) in embodiment 1), a curcumin group and a polypeptide nano-bubble-curcumin group (prepared by step 4) in embodiment 1). […]

For test [2], the system named is mice fed with high fat. In words: Storage of visceral and subcutaneous adipose of mice fed with high fat. The class given is in vivo. Particulars: for Weight: body weight after 20 weeks. The protocol:
• 1) The obese mice fed with high fat are subjected to drug administration by intravenous injection for 20 weeks according to experimental steps in embodiment 2; • 2) the mice in the various groups are not fed with food for 12 hours, and are weighed accurately after being anaesthetized with 3% pentobarbital sodium at 45 mg/kg by intraperitoneal injection; • 3) the mice are conventionally sterilized and subjected to laparotomy, kidney surrounding adipose tissues, mesenterium surrounding adipose tissues, epididymis surrounding adipose tissues and abdominal subcutaneous adipose tissues are rapidly picked to weigh wet weight (wherein the range of the abdominal subcutaneous adipose tissues is as follows: the abdomen below an costal arch and above a groin, and a midaxillary line is taken as a boundary for two sides); • 4) the weight is calculated according to the following formula: wet weight of abdominal adipose; adipose pad total weight (g)=the kidney surrounding adipose tissues+the epididymis surrounding adipose tissues; and body adipose content=the adipose pad total weight (g)/body weight (g). • 5) The obtained data is subjected to statistical treatment.

[3] abbreviates: high-fat diet mice, 20 weeks, n = 10.
[4] abbreviates: high-fat diet mice, tail vein injection 20 weeks, curcumin 75 mg/kg or nano-bubbles 40 μg/mice/time, n = 10, wet weight.

The structures appear in SMILES notation.

With `COc1cc(/C=C/C(=O)CC(=O)/C=C/c2ccc(O)c(OC)c2)ccc1O` [Curcumin, curcumin], the “Increasing of the weight of the mice compared with the model control group” value in test [1] is “obviously inhibited”. Moreover, the “Wet weight of the visceral adipose tissues compared with the model control group” value in test [2] (Table 6) is “reduced obviously”. In test [2] (Table 6, high-fat diet mice, tail vein injection 20 weeks, n = 10), the “Total weight of visceral adipose tissues” value was 8.03 ± 0.02 g. Further, in test [2] (Table 7), the “Body fat mass index compared with the model control group” value is “obviously reduced”. The Weight in test [2] (Table 7, high-fat diet mice, n = 10) turned out to be 34.92 ± 0.96 g. Moreover, the Weight in test [2] (Table 8, high-fat diet mice, n = 10) came out at 35.72 ± 0.75 g. Further, in test [2] (Table 8, high-fat diet mice, 20 weeks, n = 10), the “VAT (total weight of visceral adipose tissues)” value is on record as 7.24 ± 0.02 g. Further, the “Body fat mass index” value in test [2] (fat pad total weight (g)/weight (g), high-fat diet mice, 20 weeks, n = 10) worked out at 6.38 ± 0.21 %. Besides, in test [2] (setting [3]), the “SCAT (subcutaneous adipose tissue total weight)” value is reported as 3.01 ± 0.05 g, the SCAT/weight is 7.02 ± 0.38 and the VAT/SCAT was 1.78 ± 0.09. In test [2] (setting [4]), the “Amount of visceral adipose tissues: Epididymis surrounding” value came to 1.21 ± 0.18 g; the “Amount of visceral adipose tissues: Kidney surrounding” value is on record as 0.72 ± 0.05 g; the “Amount of visceral adipose tissues: Omentum and mesenterium surrounding” value is given as 0.59 ± 0.02 g. In addition, the “Fat pad total weight” value in test [2] (kidney surrounding + epididymis surrounding adipose tissues, high-fat diet mice, 20 weeks, n = 10) stood at 2.34 ± 0.10 g. In test [2] (text on Table 8), the “Weight of the subcutaneous adipose compared with the model group” value is listed as “remarkably reduced”.

The values are drawn from patent publication US20190133964A1, “Polypeptide nano-bubbles and preparation method and application thereof” (NANJING MEDICAL UNIVERSITY, priority 2018, published 2019).
